Experimental data published in patent publication US11173140B2, “Dosing regimens of PKC activators” (COGNITIVE RESEARCH ENTERPRISES, INC., priority 2015, dated 2021).

Target: T1, PKC-ε (Mus musculus, UniProt P16054)
T1 construct: from tissue; host or cells: brain of C57B/6 male mice
T1 sequence (P16054 1-737): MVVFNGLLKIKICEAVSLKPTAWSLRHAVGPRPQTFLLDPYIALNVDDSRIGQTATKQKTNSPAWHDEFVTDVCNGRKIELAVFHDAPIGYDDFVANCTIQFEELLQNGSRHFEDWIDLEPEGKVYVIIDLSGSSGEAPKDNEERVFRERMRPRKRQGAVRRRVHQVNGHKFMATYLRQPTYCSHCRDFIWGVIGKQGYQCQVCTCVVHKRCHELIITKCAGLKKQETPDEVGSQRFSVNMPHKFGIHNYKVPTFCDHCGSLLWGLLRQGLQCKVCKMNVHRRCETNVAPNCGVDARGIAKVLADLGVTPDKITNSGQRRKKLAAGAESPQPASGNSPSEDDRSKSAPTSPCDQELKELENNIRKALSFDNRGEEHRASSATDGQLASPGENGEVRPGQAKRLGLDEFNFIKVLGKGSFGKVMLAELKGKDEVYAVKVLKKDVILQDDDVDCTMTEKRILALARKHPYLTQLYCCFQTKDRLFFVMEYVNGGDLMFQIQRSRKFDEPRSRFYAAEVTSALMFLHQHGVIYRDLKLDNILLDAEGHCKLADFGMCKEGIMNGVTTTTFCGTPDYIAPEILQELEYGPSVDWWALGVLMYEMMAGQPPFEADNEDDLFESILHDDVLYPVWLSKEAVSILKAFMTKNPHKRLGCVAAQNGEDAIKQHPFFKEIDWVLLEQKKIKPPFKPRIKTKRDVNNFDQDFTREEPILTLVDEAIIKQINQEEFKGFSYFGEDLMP
Assay: Total PKC (PKC-ε) level / downregulation in brain after i.v. bryostatin dosing regimens
Format: in vivo
Conditions: mice
Experimental: FIGS. […] (A) Downregulation of brain PKCε in mice after intravenous administration of bryostatin at doses of 10 μg/m^2, 15 μg/m^2, and 25 μg/m^2 for 1-6 consecutive weeks. (B) Downregulation of brain PKCε in mice after intravenous administration of bryostatin at two different doses (i) 2×25+2 μg/m^2, and (ii) 25 μg/m^2. Dosing regimen is disclosed along the abscissa.
Mouse studies were performed using bryostatin-i in accordance with the protocol described below. The following metrics were used to evaluate dosing regimens: induction of brain postsynaptic anchoring protein PSD-95, upregulation of BDNF levels in brain, minimal downregulation of PKC-ε levels, and elevation of brain and plasma concentrations of bryostatin. Groups of 2-3 mice were formed and housed in an approved research animal facility. Water was give ad libitum. A first study involved three groups of mice with animals in each group dosed weekly for 1, 2, 3, or 6 consecutive weeks. Each group had its own control group containing the same number of mice. In this study, mice in the first, second and third groups received an intravenous (i.v.) injection of 10 μg/m^2, 15 μg/m^2, and 25 μg/m^2 dose of bryostatin respectively. For each dose, mice in that group received a single injection of bryostatin weekly for predetermined number of consecutive weeks. Following dosing, mice were sacrificed and the blood and brain of each animal was collected for further analysis.
Cells were harvested in homogenizing buffer containing 10 mM Tris-Cl (pH 7.4), 1 mM PMSF (phenylmethylsulfonyl fluoride), 1 mM EGTA, 1 mM EDTA. 50 mM NaF, and 20 μM leupeptin and were lysed by sonication. The homogenate was centrifuged at 100,000×g for 15 min at 4° C. to obtain the cytosolic fraction (supernatant) and membrane (pellet). The pellet was resuspended in the homogenizing buffer by sonication. Protein concentration was measured using the Coomassie Plus (Bradford) Protein Assay kit (Pierce, USA). Following quantification, 20 μg of protein from each sample was subjected to SDS-PAGE analysis in 4-20% gradient Tris-Glycine gel (Invitrogen, USA). The separated protein was then transferred to nitrocellulose membrane. The membrane was blocked with BSA at room temperature for 15 min and was incubated with primary antibody over night at 4° C. After the incubation, it was washed three times with TBS-T (Tris Buffered saline-Tween 20) and further incubated with alkaline phosphatase conjugated secondary antibody (Jackson Immunoresearch Laboratories. USA) at 1:10,000 dilution for 45 min. The membrane was finally washed three times with TBS-T and developed using the 1-step NBT-BCIP substrate (Pierce, USA). Western Blot was imaged in the Image Quant RT-ECL (GE Life Sciences, Piscataway, N.J.) and densitometric quantification was performed using the IMAL software (Blanchette Rockefeller Neurosciences institute, Morgantown, W. Va.). For translocation assays, PKC activation was represented as the percentage of total protein in the membrane (membrane/cytosol+membrane). […]
C57B/6 male mice weighing between 19-21 grams were obtained from Charles River and housed in cages, 1 mouse/cage in a vivarium at the Blanchette Rockefeller Neurosciences institute. Animals were allowed access to water ad libitum.
In these studies, bryostatin was administered intravenously (i.v.) by injection into the tail vein of a mouse. Stock solutions of bryostatin were prepared in dimethyl sulfoxide (DMSO). Prior to administration to a mouse, the stock DMSO solution of bryostatin was diluted to a predetermined concentration by dilution with phosphate buffered saline/saline (PBS/saline).
Three different dosing regimens (injection schedules) were compared. The dosing regimens tested were weekly dosing, dosing every other week (alternating weeks), and spaced or intermittent dosing. […]

## CCC/C=C/C=C/C(=O)O[C@H]1/C(=C/C(=O)OC)C[C@H]2C[C@H]([C@@H](C)O)OC(=O)C[C@H](O)C[C@@H]3C[C@H](OC(C)=O)C(C)(C)[C@](O)(C[C@@H]4C/C(=C/C(=O)OC)C[C@H](/C=C/C(C)(C)[C@]1(O)O2)O4)O3 [Bryostatin-1]
10 μg/m^2 weekly, total of 6 consecutive weeks
  PKC-ε downregulation: appeared to result in downregulation
25 μg/m^2, continued dosing, 1 on/1 off and 2 on/1 off regimens
  PKC-ε downregulation: additional downregulation occurred
25 μg/m^2, rest intervals increased to three weeks (3 on/3 off)
  PKC downregulation: significantly reduced PKC downregulation
25 μg/m^2, three consecutive weekly doses, versus lower doses
  PKC-ε downregulation in brain: did not produce more PKC-ε downregulation
Cage 4: 25 μg/m^2 i.v. once weekly, 3 weeks, 24 h
  PKC (% of Control), total PKC level: 84.841 % of Control
Cage 5: 25 μg/m^2 i.v., 3 on/3 off/3 on (9 weeks), 24 h
  PKC (% of Control), total PKC level: 78.2 % of Control
Cage 6: 10 μg/m^2 i.v. once weekly, 3 weeks, 24 h
  PKC (% of Control), total PKC level: 95.197 % of Control
Cage 8: 10 μg/m^2 i.v. once weekly, 6 weeks, 24 h
  PKC (% of Control), total PKC level: 80.441 % of Control
Cage 9: 25 μg/m^2 i.v., alternating, weeks 1 and 3, 24 h
  PKC (% of Control), total PKC level: 63.02 % of Control
Cage 10: 25 μg/m^2 i.v., alternating, weeks 1, 3, 5, 7, 9, 24 h
  PKC (% of Control), total PKC level: 59.11 % of Control
Cage 11: 25 μg/m^2 i.v., weeks 1 and 2, collection week 3 (7 d delay)
  PKC (% of Control), total PKC level: 56.7 % of Control
Cage 12: 25/20 μg/m^2 i.v., injections weeks 1, 2, 4, 6, 8, collection week 9 (7 d delay)
  PKC (% of Control), total PKC level: 49.92 % of Control
Cage 18: 15 μg/m^2 i.v. once weekly, 3 weeks, 24 h
  PKC (% of Control), total PKC level: 66.430 % of Control
Cage 22 (regimen not listed in Tables 2/3)
  PKC (% of Control), total PKC level: 89.206 % of Control
Cage 24: 25 μg/m^2 i.v. once weekly, 2 weeks, 24 h
  PKC (% of Control), total PKC level: 96.723 % of Control
